Test [1] deals with Thymidine phosphorylase (Escherichia coli K-12) (UniProt P07650). Put plainly: Inhibition of Escherichia coli Thymidine Phosphorylase at a concentration of 1000 uM after 60 minutes.
The target is the same in test [2]. Put plainly: Inhibition of Escherichia coli Thymidine Phosphorylase at a concentration of 1000 uM after 40 minutes.
Test [3] shares this target. The test is described as follows: Inhibition of Escherichia coli Thymidine Phosphorylase at a concentration of 1000 uM after 20 minutes.
For test [4], the target named is Thymidine phosphorylase (Escherichia coli) (UniProt P07650). Put plainly: Inhibition of Escherichia coli TPase at a concentration of 500 uM after 60 minutes.
Test [5] has the same target. Put plainly: Inhibition of Escherichia coli TPase at a concentration of 500 uM after 40 minutes.
Test [6] shares this target. Put plainly: Inhibition of Escherichia coli TPase at a concentration of 500 uM after 20 minutes.

The term inhibition denotes the share of the control response that was lost under treatment. A high value points to a strong effect.

Chain of Thymidine phosphorylase (Escherichia coli K-12) (P07650 whole entry, looked up): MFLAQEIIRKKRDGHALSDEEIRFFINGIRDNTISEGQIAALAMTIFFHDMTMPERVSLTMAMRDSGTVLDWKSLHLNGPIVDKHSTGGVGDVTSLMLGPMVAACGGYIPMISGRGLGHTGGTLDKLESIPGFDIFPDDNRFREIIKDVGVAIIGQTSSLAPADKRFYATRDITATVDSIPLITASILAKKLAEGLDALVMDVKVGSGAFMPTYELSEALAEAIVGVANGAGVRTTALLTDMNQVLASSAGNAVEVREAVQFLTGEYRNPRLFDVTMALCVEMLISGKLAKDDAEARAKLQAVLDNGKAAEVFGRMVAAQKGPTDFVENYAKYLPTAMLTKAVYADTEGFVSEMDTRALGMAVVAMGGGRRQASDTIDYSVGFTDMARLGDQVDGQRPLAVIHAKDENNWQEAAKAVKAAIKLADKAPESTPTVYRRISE
Chain of Thymidine phosphorylase (Escherichia coli) (P07650 whole entry, looked up): as above

For the molecule `Cc1cn(COC/C=C\COCP(=O)(O)O)c(=O)[nH]c1=O`, the inhibition in test [1], in test [2] and in test [3] was 0% in each case.

Turning to `Cc1cn(C/C=C\COCP(=O)(OC(C)C)OC(C)C)c(=O)[nH]c1=O`, the inhibition in test [1], in test [2] and in test [3] was 0% each time.

For `Cc1cn(CC(O)C(O)COCP(=O)(O)O)c(=O)[nH]c1=O` (stereo not given), the inhibition in test [1], in test [2] and in test [3] was 0% each time.

Regarding `Cc1cn(CCCCOCP(=O)(OC(C)C)OC(C)C)c(=O)[nH]c1=O`, the inhibition in test [1], in test [2] and in test [3] was 0% in each case.

Regarding `Cc1cn(CCCCOCP(=O)(O)O)c(=O)[nH]c1=O`, the figures for the inhibition in test [1], in test [2] and in test [3] were 12%, 17% and 27%, respectively.

With `Cc1cn(CCCCCCCP(=O)(O)O)c(=O)[nH]c1=O`, the figures for the inhibition in test [1], in test [2] and in test [3] were 55%, 63% and 73%, respectively.

Turning to `Cc1cn(C/C=C\COCOCP(=O)(OC(C)C)OC(C)C)c(=O)[nH]c1=O`, the inhibition in test [1], in test [2] and in test [3] was 0% in each case.

Take `Cc1cn(CCCCCCP(=O)(O)O)c(=O)[nH]c1=O`: the figures for the inhibition in test [1], in test [2] and in test [3] were 2%, 5% and 11%, respectively.

In the case of `Cc1cn(CC(O)C(O)COCP(=O)(OC(C)C)OC(C)C)c(=O)[nH]c1=O` (stereo not given), the inhibition in test [1], in test [2] and in test [3] was 0% each time.

With `Cc1cn(CCCCCCCCCP(=O)(O)O)c(=O)[nH]c1=O`, the values for the inhibition in test [1], in test [2] and in test [3] were 70%, 75% and 81%, respectively.

Take `Cc1cn(CCCCOCOCP(=O)(O)O)c(=O)[nH]c1=O`: the inhibition in test [1], in test [2] and in test [3] was 0% throughout.

`Cc1cn(CC(O)C(O)COCOCP(=O)(O)O)c(=O)[nH]c1=O` (stereo not given): the inhibition in test [1], in test [2] and in test [3] was 0% in each case.

As to `Cc1cn(CCCCCCCCP(=O)(O)O)c(=O)[nH]c1=O`, the inhibition in test [1] was 61%; in test [2] it was 68%; in test [3], 75%.

Regarding `Cc1cn(CC(O)C(O)COCOCP(=O)(OC(C)C)OC(C)C)c(=O)[nH]c1=O` (stereo not given), the inhibition in test [1], in test [2] and in test [3] was 0% in each case.

As for `O=c1[nH]c(=O)n(CCCCCCCCP(=O)(O)O)c2[nH]ccc12`, the inhibition in test [1] stood at 94%; in test [2], 96%; in test [3] it was 97%.

Take `Cc1cn(C/C=C\COCOCP(=O)(O)O)c(=O)[nH]c1=O`: the inhibition in test [1] was determined as 17%; in test [2], 22%; in test [3], 34%.

Turning to `CCOP(=O)(CCCCCCCCn1c(=O)[nH]c(=O)c2cc[nH]c21)OCC`, the inhibition in test [4] was 27%; in test [5] it was 37%; in test [6] it was 43%.

As for `CCOP(=O)(CCCCCCCCCn1cc(C)c(=O)[nH]c1=O)OCC`, the figures for the inhibition in test [1], in test [2] and in test [3] were 2%, 3% and 4%, respectively.

In the case of `CCOP(=O)(CCCCCCCCn1cc(C)c(=O)[nH]c1=O)OCC`, the inhibition in test [1], in test [2] and in test [3] was 0% in each case.

Take `Cc1cn(CCCCCCCCP(=O)(OC(C)C)OC(C)C)c(=O)[nH]c1=O`: the inhibition in test [1], in test [2] and in test [3] was 0% throughout.

Take `Cc1cn(C/C=C\COCP(=O)(O)O)c(=O)[nH]c1=O`: the inhibition in test [1], in test [2] and in test [3] was 0% in each case.

Consider `CCOP(=O)(CCCCCCCCn1c(N)c(Br)c(=O)[nH]c1=O)OCC`, for which the figures for the inhibition in test [1], in test [2] and in test [3] were 10%, 16% and 21%, respectively.

As for `Cc1cn(CCCCOCOCP(=O)(OC(C)C)OC(C)C)c(=O)[nH]c1=O`, the inhibition in test [1], in test [2] and in test [3] was 0% throughout.

On to `CCOP(=O)(CCCCCCCn1cc(C)c(=O)[nH]c1=O)OCC`, for which the inhibition in test [1], in test [2] and in test [3] was 0% throughout.

As to `Nc1c(Br)c(=O)[nH]c(=O)n1CCCCCCCCP(=O)(O)O`, the values for the inhibition in test [1], in test [2] and in test [3] were 89%, 91% and 94%, respectively.
